# Measurements from US10005767B2, “Compositions and methods for inhibition of the JAK pathway” (Rigel Pharmaceuticals, Inc., priority 2009, dated 2018).
# Test system: human primary T-cells, IL-2 stimulated proliferation (JAK-1 and JAK-3 dependent; reported as JAK3 activity)
# Assay: Human primary T-cell proliferation stimulated by IL-2 (Example 3)
# Type: cell-based
# Conditions: Homo sapiens, T-cell, tested under conditions described in Example 3 (IL-2 stimulated human primary T-cell proliferation); read-out: ability to inhibit JAK3 activity, IC50 range (Table V)
# Summary of the method: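 Peripheral-blood human T-cells pre-activated via TCR/CD28, IL-2-starved overnight, then cultured 72 h at 37 °C with compound in Yssel's medium containing IL-2 (80 U/mL in cell suspension). Proliferation read as viable-cell ATP by CellTiter-Glo luminescence; reduction versus control taken as JAK pathway inhibition.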
row,Structure (SMILES),IC50 [nM]
1,"Cc1cnc(Nc2ccc3c(c2)CN(C(=O)C(C)(C)C)C3)nc1N(C(=O)C(C)(C)C)c1ccc2oc(=O)n(C(=O)C(C)(C)C)c2c1 [III-13, N-{2-[2-(2,2-Dimethyl-propionyl)-2,3-dihydro-1H-isoindol-5-ylamino]-5-methyl-pyrimidin-4-yl}-N-[3-(2,2-dimethyl-propionyl)-2-oxo-2,3-dihydro-benzooxazol-5-yl]-2,2-dimethyl-propionamide]",< 500
2,"Cc1cnc(Nc2ccc3c(c2)CN(S(C)(=O)=O)C3)nc1Nc1ccc2oc(=O)[nH]c2c1 [III-14, 5-[2-(2-Methanesulfonyl-2,3-dihydro-1H-isoindol-5-ylamino)-5-methyl-pyrimidin-4-ylamino]-3H-benzooxazol-2-one]",< 500
3,"Cc1cnc(Nc2ccc3c(c2)CCC(N2CCCC2)CC3)nc1Nc1ccc2oc(=O)[nH]c2c1 (stereo not shown) [IV-1, N4-(benzo[d]oxazol-2(3H)-on-5-yl)-N2-(7-(pyrrolidin-1-yl)-6,7,8,9-tetrahydro-5H-benzo[7]annulen-2-yl)-5-methylpyrimidine-2,4-diamine]",< 500
4,"Cc1cnc(Nc2ccc3c(c2)C(=O)CCCC3)nc1Nc1ccc2oc(=O)[nH]c2c1 [IV-2, N4-(benzo[d]oxazol-2(3H)-on-5-yl)-N2-(6,7,8,9-tetrahydro-5H-benzo[7]annulen-5-on-3-yl)-5-methylpyrimidine-2,4-diamine]",< 500
5,"Cc1cnc(Nc2ccc(N3CCN(C)CC3)nn2)nc1Nc1ccc2oc(=O)[nH]c2c1 [IV-3, N4-(benzo[d]oxazol-2(3H)-on-5-yl)-N2-(6-(4-methylpiperazin-1-yl)pyridazin-3-yl)-5-methylpyrimidine-2,4-diamine]",> 10000
6,"Cc1cnc(Nc2ccc3cn[nH]c3c2)nc1Nc1ccc2oc(=O)[nH]c2c1 [IV-4, N4-(benzo[d]oxazol-2(3H)-on-5-yl)-N2-(1H-indazol-6-yl)-5-methylpyrimidine-2,4-diamine]",< 500
7,"Cc1cnc(Nc2ccc3cnoc3c2)nc1Nc1ccc2oc(=O)[nH]c2c1 [IV-5, N4-(benzo[d]oxazol-2(3H)-on-5-yl)-N2-(1,2-benzisoxazol-6-yl)-5-methylpyrimidine-2,4-diamine]",< 500
8,"Cc1cnc(Nc2ccc3[nH]ncc3c2)nc1Nc1ccc2oc(=O)[nH]c2c1 [IV-6, N4-(benzo[d]oxazol-2(3H)-on-5-yl)-N2-(1H-indazol-5-yl)-5-methylpyrimidine-2,4-diamine]",< 500
9,"Cc1cnc(Nc2ccnc(N3CCNCC3)c2)nc1Nc1ccc2oc(=O)[nH]c2c1 [IV-7, N4-(benzo[d]oxazol-2(3H)-on-5-yl)-N2-[2-(piperazino)pyridin-4-yl]-5-methylpyrimidine-2,4-diamine]",5000 to 10000
10,"Cc1cnc(Nc2ccnc(N3CCN(C)CC3)c2)nc1Nc1ccc2oc(=O)[nH]c2c1 [IV-8, N4-(benzo[d]oxazol-2(3H)-on-5-yl)-N2-[2-(4-methylpiperazino)pyridin-4-yl]-5-methylpyrimidine-2,4-diamine]",> 10000
11,"Cc1cnc(Nc2ccc3onc(C)c3c2)nc1Nc1ccc2oc(=O)[nH]c2c1 [IV-9, N4-(benzo[d]oxazol-2(3H)-on-5-yl)-N2-(3-methyl-1,2-benzisoxazol-5-yl)-5-methylpyrimidine-2,4-diamine]",< 500
12,"Cc1cnc(Nc2ccc3c(c2)C(=O)N(C)C/C=C\C3)nc1Nc1ccc2oc(=O)[nH]c2c1 [IV-10, (Z)-2-Methyl-9-[5-methyl-4-(2-oxo-2,3-dihydro-benzooxazol-5-ylamino)-pyrimidin-2-ylamino]-3,6-dihydro-2H-benzo[c]azocin-1-one]",< 500
13,"Cc1cnc(Nc2cccc3c2OC(F)(F)O3)nc1Nc1ccc2oc(=O)[nH]c2c1 [IV-11, 5-[2-(2,2-Difluoro-benzo[1,3]dioxol-4-ylamino)-5-methyl-pyrimidin-4-ylamino]-3H-benzooxazol-2-one]",< 500
14,"Cc1cnc(Nc2ccc3c(c2)C(NC(C)C)CCCC3)nc1Nc1ccc2oc(=O)[nH]c2c1 (stereo not shown) [IV-12, 5-[2-(9-Isopropylamino-6,7,8,9-tetrahydro-5H-benzocyclohepten-2-ylamino)-5-methyl-pyrimidin-4-ylamino]-3H-benzooxazol-2-one]",< 500
15,"CCN(CC)C1CCN(C2CCCCc3ccc(Nc4ncc(C)c(Nc5ccc6oc(=O)[nH]c6c5)n4)cc32)C1 (stereo not shown) [IV-13, 5-{2-[9-(3-Diethylamino-pyrrolidin-1-yl)-6,7,8,9-tetrahydro-5H-benzocyclohepten-2-ylamino]-5-methyl-pyrimidin-4-ylamino}-3H-benzooxazol-2-one]",500 to 5000
16,"Cc1cnc(Nc2ccc3c(c2)C(=O)N(C)CCCC3)nc1Nc1ccc2oc(=O)[nH]c2c1 [IV-14, 2-Methyl-9-[5-methyl-4-(2-oxo-2,3-dihydro-benzooxazol-5-ylamino)-pyrimidin-2-ylamino]-3,4,5,6-tetrahydro-2H-benzo[c]azocin-1-one]",< 500
17,"Cc1cnc(Nc2ccc3c(c2)CCNC3=O)nc1Nc1ccc2oc(=O)[nH]c2c1 [IV-15, 6-[5-Methyl-4-(2-oxo-2,3-dihydro-benzooxazol-5-ylamino)-pyrimidin-2-ylamino]-3,4-dihydro-2H-isoquinolin-1-one]",< 500

row,Structure (SMILES),IC50 [nM]
1,"Cc1cnc(Nc2ccc3c(c2)NS(=O)(=O)CO3)nc1Nc1ccc2oc(=O)[nH]c2c1 [IV-16, 5-[2-(2,2-Dioxo-1H-benzo[e][1,3,4]oxathiazin-7-ylamino)-5-methyl-pyrimidin-4-ylamino]-3H-benzooxazol-2-one]",< 500
2,"Cc1cnc(Nc2ccc3c(c2)OC(C)(C)O3)nc1Nc1ccc2oc(=O)[nH]c2c1 [IV-17, 5-[2-(2,2-Dimethyl-benzo[1,3]dioxol-5-ylamino)-5-methyl-pyrimidin-4-ylamino]-3H-benzooxazol-2-one]",< 500
3,"Cc1cnc(Nc2ccc3c(c2)C=CCNC3=O)nc1Nc1ccc2oc(=O)[nH]c2c1 [IV-18, (Z)-5-(5-methyl-2-(1-oxo-2,3-dihydro-1H-benzo[c]azepin-7-ylamino)pyrimidin-4-ylamino)benzo[d]oxazol-2(3H)-one]",< 500
4,"Cc1cnc(Nc2ccc3c(c2)C=CCN(C)C3=O)nc1Nc1ccc2oc(=O)[nH]c2c1 [IV-19, (Z)-5-(5-methyl-2-(2-methyl-1-oxo-2,3-dihydro-1H-benzo[c]azepin-7-ylamino)pyrimidin-4-ylamino)benzo[d]oxazol-2(3H)-one]",< 500
5,"Cc1cnc(Nc2ccc3c(c2)CCCN(C)C3=O)nc1Nc1ccc2oc(=O)[nH]c2c1 [IV-21, 5-(5-methyl-2-(2-methyl-1-oxo-2,3,4,5-tetrahydro-1H-benzo[c]azepin-7-ylamino)pyrimidin-4-ylamino)benzo[d]oxazol-2(3H)-one]",< 500
6,"Cc1cnc(Nc2ccc3oc(=O)[nH]c3c2)nc1Nc1ccc2oc(=O)[nH]c2c1 [IV-22, 5,5′-(5-methylpyrimidine-2,4-diyl)bis(azanediyl)dibenzo[d]oxazol-2(3H)-one]",< 500
7,"Cc1cnc(Nc2ccc3c(c2)NC(=O)CCC3)nc1Nc1ccc2oc(=O)[nH]c2c1 [IV-23, 5-(5-methyl-2-(2-oxo-2,3,4,5-tetrahydro-1H-benzo[b]azepin-8-ylamino)pyrimidin-4-ylamino)benzo[d]oxazol-2(3H)-one]",< 500
8,"Cc1cnc(Nc2ccc3c(c2)NC(=O)CC3)nc1Nc1ccc2oc(=O)[nH]c2c1 [IV-24, 5-(5-methyl-2-(2-oxo-1,2,3,4-tetrahydroquinolin-7-ylamino)pyrimidin-4-ylamino)benzo[d]oxazol-2(3H)-one]",< 500
9,"Cc1cnc(Nc2ccc3c(c2)NC(=O)CO3)nc1Nc1ccc2oc(=O)[nH]c2c1 [IV-25, 6-(5-methyl-4-(2-oxo-2,3-dihydrobenzo[d]oxazol-5-ylamino)pyrimidin-2-ylamino)-2H-benzo[b][1,4]oxazin-3 (4H)-one]",< 500
10,"Cc1cnc(Nc2ccc3c(c2)NC(=O)C3(C)C)nc1Nc1ccc2oc(=O)[nH]c2c1 [IV-26, 5-(2-(3,3-dimethyl-2-oxoindolin-6-ylamino)-5-methylpyrimidin-4-ylamino)benzo[d]oxazol-2(3H)-one]",< 500
11,"Cc1cnc(Nc2ccc3c(c2)CC(=O)N3C)nc1Nc1ccc2oc(=O)[nH]c2c1 [IV-27, 5-(5-methyl-2-(1-methyl-2-oxoindolin-5-ylamino)pyrimidin-4-ylamino)benzo[d]oxazol-2(3H)-one]",< 500
12,"Cc1cnc(Nc2ccc3c(c2)[nH]c(=O)n3C)nc1Nc1ccc2oc(=O)[nH]c2c1 [IV-28, 5-(5-methyl-2-(1-methyl-2-oxo-2,3-dihydro-1H-benzo[d]imidazol-5-ylamino)pyrimidin-4-ylamino)benzo[d]oxazol-2(3H)-one]",< 500
13,"Cc1cnc(Nc2ccc3[nH]c(=O)[nH]c3c2)nc1Nc1ccc2oc(=O)[nH]c2c1 [IV-29, 5-(5-methyl-2-(2-oxo-2,3-dihydro-1H-benzo[d]imidazol-5-ylamino)pyrimidin-4-ylamino)benzo[d]oxazol-2(3H)-one]",< 500
14,"Cc1cnc(Nc2ccc3c(c2)N(C)C(=O)CCC3)nc1Nc1ccc2oc(=O)[nH]c2c1 [IV-30, 5-(5-methyl-2-(1-methyl-2-oxo-2,3,4,5-tetrahydro-1H-benzo[b]azepin-8-ylamino)pyrimidin-4-ylamino)benzo[d]oxazol-2(3H)-one]",< 500
15,"Cc1cnc(Nc2ccc3c(c2)CCCC(=O)N3)nc1Nc1ccc2oc(=O)[nH]c2c1 [IV-31, 5-(5-methyl-2-(2-oxo-2,3,4,5-tetrahydro-1H-benzo[b]azepin-7-ylamino)pyrimidin-4-ylamino)benzo[d]oxazol-2(3H)-one]",< 500
16,"Cc1cnc(Nc2ccc3c(c2)OCC(=O)N3)nc1Nc1ccc2oc(=O)[nH]c2c1 [IV-32, 7-(5-methyl-4-(2-oxo-2,3-dihydrobenzo[d]oxazol-5-ylamino)pyrimidin-2-ylamino)-2H-benzo[b][1,4]oxazin-3 (4H)-one]",< 500
17,"Cc1cnc(Nc2ccc3c(c2)CCC(=O)N3)nc1Nc1ccc2oc(=O)[nH]c2c1 [IV-33, 5-(5-methyl-2-(2-oxo-1,2,3,4-tetrahydroquinolin-6-ylamino)pyrimidin-4-ylamino)benzo[d]oxazol-2(3H)-one]",< 500
